Results reported in patent EP0318620A1, “Herbicidal sulfonamides” (E.I. DU PONT DE NEMOURS AND COMPANY, priority 1987, dated 1989).

Legend:
[1] = system: sugarbeet; test: Test B pan test in Sassafras sandy loam soil, pre- and postemergence; type: in vivo, Beta vulgaris; conditions: scale 0 to 100
Excerpt: (§1) Three round pans (25 cm diameter by 12.5 cm deep) were filled with Sassafras sandy loam soil. One pan was planted with nutsedge (Cyperus rotundus) tubers, crabgrass (Digitaria sanguinalis), sicklepod (Cassia obtusifolia), jimsonweed (Datura stramonium), velvetleaf (Abutilon theophrasti), lambsquarters (Chenopodim album), rice (Oryza sativa) and teaweed (Sida spinosa). The second pot was planted with green foxtail (Setaria viridis), cocklebur (Xantium pensyivanicum), morningglory (lpomoea hederacea), cotton (Gossypium hirsutum), johnsongrass (Sorghum halepense), barnyardgrass (Echinochloa crusgalli), corn (Zea mays), soybean (Glycine max) and giant foxtail (Setaria faberi). The third pot was planted with wheat (Triticum aestivum), barley (Hordeum vulgare), wild buckwheat (Polgonum convolvulus L.), cheatgrass (Bromus secalinus L.), sugarbeet (Beta vulgaris), wild oats (Avena fatua), viola (Viola arvensis), blackgrass (Alopecurus myosuroides), and rape (Brassica napus). The plants were grown for approximately fourteen days, then sprayed postemergence with the chemicals dissolved in a non-phytotoxic solvent.
(§2) Three round pans (25 cm diameter by 12.5 cm deep) were filled with Sassafras sandy loam soil. One pan was planted with nutsedge tubers, crabgrass, sicklepod, jimsonweed, velvetleaf, lambsquarters, rice and teaweed. The second pot was planted with green foxtail, cocklebur, morningglory, cottom, johnsongrass, . barnyardgrass, corn, soybean and giant foxtail. The third pot was planted with wheat, barley, wild buckwheat, cheatgrass, sugarbeet, wild oat, viola, blackgrass and rape. The three pans were sprayed preemer gence with the chemicals dissolved in a non-phytotoxic solvent.
(§3) Treated plants and controls were maintained in the greenhouse for 24 days, then all rated plants were compared to controls and visually rated for plant response.
(§4) A dash (-) response means no test.

[2] = system: giant foxtail; test: as above; type: in vivo, Setaria faberi; conditions: scale 0 to 100
Excerpt: as §1, §2, §3, §4

With `CCOC(=O)c1c(CC#N)cccc1S(=O)(=O)NC(=O)Nc1nc(OC)cc(OC)n1` [Compound 3, 2-(cyanomethyl)-6 [[(4,6-dimethoxypyrimidin-2-yl)-aminocarbonyl]aminosulfonyl]benzoic acid, ethyl ester] the “SUGAR BEETS response rating” value ([1]; POSTEMERGENCE, RATE 0001 G/HA) was 70, the “SUGAR BEETS response rating” value ([1]; POSTEMERGENCE, RATE 0004 G/HA) was 100 and the “SUGAR BEETS response rating” value ([1]; POSTEMERGENCE, RATE 0016 G/HA) was 100. For the same compound, the “SUGAR BEETS response rating” value ([1]; POSTEMERGENCE, RATE 0062 G/HA) was 100, the “SUGAR BEETS response rating” value ([1]; PREEMERGENCE, RATE 0004 G/HA) was 50 and the “SUGAR BEETS response rating” value ([1]; PREEMERGENCE, RATE 0016 G/HA) was 70. For the same compound, the “SUGAR BEETS response rating” value ([1]; PREEMERGENCE, RATE 0062 G/HA) was 90, the “GIANT FOXTAIL response rating” value ([2]; POSTEMERGENCE, RATE 0001 G/HA) was 90 and the “GIANT FOXTAIL response rating” value ([2]; POSTEMERGENCE, RATE 0004 G/HA) was 100. For the same compound, the “GIANT FOXTAIL response rating” value ([2]; POSTEMERGENCE, RATE 0016 G/HA) was 100, the “GIANT FOXTAIL response rating” value ([2]; POSTEMERGENCE, RATE 0062 G/HA) was 100 and the “GIANT FOXTAIL response rating” value ([2]; PREEMERGENCE, RATE 0004 G/HA) was 30. For the same compound, the “GIANT FOXTAIL response rating” value ([2]; PREEMERGENCE, RATE 0016 G/HA) was 60 and the “GIANT FOXTAIL response rating” value ([2]; PREEMERGENCE, RATE 0062 G/HA) was 100.
